These results are taken from PubChem BioAssay AID608 (Sanford-Burnham Center for Chemical Genomics, 2007).

Activity calls are given as the source filed them. The rule behind the calls is not given here.

The experiment deals with Peptidyl-prolyl cis-trans isomerase FKBP1A (Homo sapiens) (UniProt P62942). The experiment can be described thus: FKBP12 binders, biophysical, NMR detection (AID 608). Particulars: NMR binding, purified FKBP12.
Sequence of Peptidyl-prolyl cis-trans isomerase FKBP1A (Homo sapiens) (P62942 whole entry, looked up): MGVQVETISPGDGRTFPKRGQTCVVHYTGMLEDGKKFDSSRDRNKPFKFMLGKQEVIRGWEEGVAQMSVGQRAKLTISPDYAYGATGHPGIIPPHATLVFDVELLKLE
By Kd is commonly meant the equilibrium constant for the complex coming apart. Take `Nc1nnc(SCc2cccnc2)s1`: the Kd was > 4 mM (inactive). Take `CC(=O)O[C@@H]1C=C[C@@]2(C)C(C[C@@H](OC(C)=O)[C@@]3(C)C4=CC(=O)O[C@@H](c5ccoc5)[C@]4(C)CCC23)C1(C)C` (stereo partly specified): the Kd was > 4 mM (inactive).

As to `O=S1(=O)C=C(Nc2ccccc2)CC1`, the dissociation constant (Kd) is 0.135 mM.

Take `O=NN1C(=O)c2ccccc2C1=O`: the Kd is > 4 mM (inactive). Turning to `COc1cc([C@@H]2c3cc4c(cc3C(OC3O[C@@H]5COC(C)O[C@H]5[C@H](O)[C@H]3O)C3COC(=O)[C@@H]32)OCO4)cc(OC)c1O` (stereo partly specified), the Kd was > 4 mM (inactive). Consider `CSc1nnnn1-c1cccc(O)c1`, for which the Kd is > 4 mM (inactive). Consider `Oc1cc(O)c2c(c1)O[C@H](c1ccc(O)c(O)c1)[C@@H](O)C2`, for which the Kd was > 4 mM (inactive).

On to `Nc1ccccc1N=C1CNC(=O)C1`, for which the Kd is > 4 mM (inactive). Regarding `O=C1c2cccc3cc(S(=O)(=O)O)cc(c23)C(=O)N1O`, the Kd is > 4 mM (inactive). As to `O=C1CNC(=O)N1Cc1ccc(F)cc1`, the Kd was > 4 mM (inactive). Regarding `Cn1nnc2cc(CO)ccc21`, the Kd was > 4 mM (inactive). `COc1ccc(S(=O)(=O)Nc2ccccn2)c(C)c1C`: the Kd was > 4 mM (inactive). With `Cn1c(O)c(C2=NC(=S)NC2=O)c2ccccc21` the figure was > 4 mM (inactive); with `CCn1cnc2scc(-c3ccccc3)c2c1=O`, > 4 mM (inactive).

For the compound `CCN1CCC(NC2CCCCNC2=O)CC1` (stereo unspecified), the Kd was > 4 mM (inactive). For `Clc1ccc2c(N3CCNCC3)ccnc2c1`, the Kd was > 4 mM (inactive). Take `Cn1ncc(NC(=O)Nc2ccc(F)cc2F)c1C(N)=O`: the Kd is > 4 mM (inactive). In the case of `COc1ccc(/C=C/c2cc(O)cc(O)c2)cc1`, the Kd was > 4 mM (inactive). On to `CS(=O)(=O)N1CCN(C(=O)Cc2cccs2)CC1`, for which the Kd is > 4 mM (inactive). With `O=P(c1ccccc1)(c1ccccc1)C1CCOCC1`, the Kd was > 4 mM (inactive).

As to `Cc1ccccc1OCC(=O)O`, the Kd is > 4 mM (inactive).

For the compound `CCCS(=O)(=O)N1CCN(c2ccccn2)CC1`, the Kd was > 4 mM (inactive). As to `Cc1cc(-c2ccccc2)nc2cc(C(N)=O)nn12`, the Kd was > 4 mM (inactive).

As to `O=C(/C(=N\O)n1cncn1)c1ccccc1Cl`, the Kd is > 4 mM (inactive). `Cc1nn2c(=O)/c(=C/c3cccc(F)c3)sc2nc1=O`: the Kd is > 4 mM (inactive). Consider `COc1ccc(CN2CCOCC2)c(C)c1C`, for which the Kd is > 4 mM (inactive). Consider `CC(C)CCCC(C)C1CCC2C3=CC[C@H]4C[C@@H](O)CC[C@]4(C)C3CC[C@@]21C` (stereo partly specified), for which the Kd is > 4 mM (inactive). As for `Cc1cc(C)n(/N=C\c2cccs2)c(=O)c1C(N)=O`, the Kd is > 4 mM (inactive).

For `Cc1nnc(N2CCc3ccccc3C2)[nH]c1=O`, the Kd was > 4 mM (inactive). Take `CS(=O)(=O)N1CCN(C(=O)c2ccccc2)C1`: the Kd was > 4 mM (inactive). Turning to `CN=C(C)c1c(O)n(C)c(=O)n(C)c1=O`, the Kd was > 4 mM (inactive).

`COc1cc(O)cc(/C=C/c2ccccc2)c1`: the Kd was > 4 mM (inactive). On to `Cc1cc(N2CCN(C)CC2)ncn1`, for which the Kd is > 4 mM (inactive). `O=C1CNc2cc(C(=O)O)ccc2N1`: the Kd is > 4 mM (inactive). Take `COC(=O)C1=CCCN(C)C1`: the Kd is > 4 mM (inactive).

For the compound `Cc1cn2c(-c3cccnc3)nnc2s1`, the Kd is > 4 mM (inactive). For `Cc1nc2[nH]onc2c2nccc(=O)c12`, the Kd is > 4 mM (inactive).

For the compound `O=[N+]([O-])c1cccc(-c2nnco2)c1`, the Kd is > 4 mM (inactive). Take `O=C(O)CCCc1nc2ccccc2s1`: the Kd was > 4 mM (inactive). On to `CN1CCN(C2CCN(Cc3ccccc3)CC2)CC1`, for which the Kd was > 4 mM (inactive). Regarding `CNC(=O)c1ccc([N+](=O)[O-])cc1Cl`, the Kd was > 4 mM (inactive). For the compound `CCOC(=O)c1c(C)nc2ncccn12`, the Kd was > 4 mM (inactive). Take `O=C(O)c1cc2ccccc2s1`: the Kd is > 4 mM (inactive).

On to `Nc1ccc(Cc2ccc(N)cc2)cc1`, for which the Kd is > 4 mM (inactive). For `O=C(O)C1CCN(S(=O)(=O)c2cccs2)CC1`, the Kd was > 4 mM (inactive). Regarding `CN(C)c1ccc(C2CC(=O)CC(=O)C2)cc1`, the Kd is > 4 mM (inactive). `CC1=C(CCC(=O)O)c2cc3nc(cc4[nH]c(cc5[nH]c(cc1n2)c(C)c5C(C)O)c(C)c4C(C)O)C(C)=C3CCC(=O)O` (stereo unspecified): the Kd is > 4 mM (inactive). For the compound `Fc1ccc(NC2=NCCS2)cc1Cl`, the Kd is > 4 mM (inactive). Consider `NC1=C([N+](=O)[O-])C(=O)c2ccccc21`, for which the Kd was > 4 mM (inactive). For `C=CC(C1=CC(=O)C=CC1=O)c1ccccc1` (stereo unspecified), the Kd is > 4 mM (inactive). With `CC(=O)Nc1ccc(C(=O)N2CCOCC2)cc1Cl` the figure was > 4 mM (inactive). Under `CC(=O)c1ccc(N2C(=O)C(C(C)C)NC2=S)cc1` (stereo unspecified) stands > 4 mM (inactive). With `COCC(=O)/C=C1\Sc2ccccc2N1C` the figure was > 4 mM (inactive); with `COC(=O)c1ccc2nc[nH]c2c1`, > 4 mM (inactive); with `COC(=O)CCSCC(=O)Nc1nnc(C)s1`, > 4 mM (inactive). In the case of `Cc1cc(C)nc(N2CC(=O)N(C)C2=N)n1`, the Kd is > 4 mM (inactive). As to `O=C1C2CCCCC2C(=O)N1c1ccc(O)cc1` (stereo unspecified), the Kd was > 4 mM (inactive). Regarding `COc1ccc(NC(=O)CSc2nccc(=O)[nH]2)cc1`, the Kd was > 4 mM (inactive). Under `Cc1cc(Oc2ccccc2)nc(N)n1` stands > 4 mM (inactive); under `CCCCCC/C=C\CCCCCCCc1cccc(O)c1C(=O)O`, > 4 mM (inactive). As to `O=C(O)CCC1=C2c3ccccc3CCN2C(=O)CC1`, the Kd is > 4 mM (inactive).

As to `Nc1cc(=O)[nH]c(SCC(=O)Nc2nccs2)n1`, the Kd is > 4 mM (inactive).

`CCCCCCCCCCCCCCC(C(=O)O)C(O)(CC(=O)OC)C(=O)O` (stereo unspecified): the Kd is > 4 mM (inactive). With `Nc1ncnc(NCCO)c1[N+](=O)[O-]` the figure was > 4 mM (inactive). In the case of `NCCc1ccc(S(N)(=O)=O)cc1`, the Kd was > 4 mM (inactive).

`CC(=O)Nc1ccc(NC(=O)/C=C\C(=O)O)cc1`: the Kd is > 4 mM (inactive).

As to `Nc1ccnc(C(=O)O)c1`, the Kd is > 4 mM (inactive). Under `C/C(O)=c1/sc2cc(C)nc(=N)n2c1=O` stands > 4 mM (inactive).

Consider `CS(=O)(=O)N1CCN(c2ncccn2)CC1`, for which the Kd was > 4 mM (inactive). With `C=C[C@@](C)(O)CCC1C(=C)CCC2[C@@](C)(CO)CCC[C@]12C` (stereo partly specified), the Kd is > 4 mM (inactive). Turning to `CNC(=O)N1CCN(C(=O)NC)CC1`, the Kd was > 4 mM (inactive). Under `Cc1nc2cc(Cl)ccc2n1CCO` stands > 4 mM (inactive). For `Cc1cc(N(CN2CCCC2=O)C(=O)c2ccccc2)no1`, the Kd was > 4 mM (inactive). With `O=C(O)C1CC(=O)N(C2Cc3ccccc3C2)C1` (stereo unspecified), the Kd was > 4 mM (inactive).

With `NC(=O)c1ccccc1N=Cc1ccco1`, the Kd was > 4 mM (inactive). Regarding `O=c1[nH]cnc2nc[nH]c12`, the Kd is > 4 mM (inactive). With `O=CN1CCN(C(=O)c2ccccc2F)CC1` the figure was > 4 mM (inactive). `CC(C)Nc1ncnc2c1nnn2C`: the Kd was > 4 mM (inactive). Turning to `NCC(=O)c1ccccc1`, the Kd was > 4 mM (inactive). With `O=C(O)c1csc(-c2cccs2)n1` the figure was > 4 mM (inactive); with `CN1CCC(NC(=O)C2CCCO2)CC1` (stereo unspecified), > 4 mM (inactive). As for `CN1CCC(NC(=S)NC2CC2)CC1`, the Kd was > 4 mM (inactive). With `COc1ccc2cnn(-c3ccccc3)c(=O)c2c1OC` the figure was > 4 mM (inactive); with `NC1Cc2ccccc2C1`, > 4 mM (inactive). In the case of `CC1=C2C(=CO[C@H](C)[C@H]2C)C(=O)C(C(=O)O)=C1O`, the Kd is > 4 mM (inactive).

For `O=C1CNCc2[nH]c3ccccc3c2N1c1ccccc1`, the Kd is > 4 mM (inactive).

In the case of `NC(=O)c1cc2c(n(-c3ccccc3)c1=O)CCCC2=O`, the Kd was > 4 mM (inactive).

`Nc1cccc(-n2cccc2)c1`: the Kd was > 4 mM (inactive).

On to `CN(C)C(=O)Oc1ccc(-c2nnco2)cc1`, for which the Kd was > 4 mM (inactive). Turning to `c1ccc(-c2nsc(N3CCCNCC3)n2)cc1`, the Kd was > 4 mM (inactive). On to `COc1ccccc1NS(=O)(=O)c1c[nH]c(=O)[nH]c1=O`, for which the Kd was > 4 mM (inactive). Regarding `COc1cc(-c2nnc(NC(C)=O)o2)cc(OC)c1OC`, the Kd was > 4 mM (inactive). Consider `COc1ccc2nc(SCC(N)=O)[nH]c2c1`, for which the Kd is > 4 mM (inactive). For `Cc1sc2nc(C)n(NC(N)=O)c(=O)c2c1C`, the Kd was > 4 mM (inactive). Turning to `N#Cc1cnn2c(C(F)(F)F)cc(C(F)(F)F)nc12`, the Kd is > 4 mM (inactive). Consider `Cc1ccc2[nH]cc(CCN)c2c1`, for which the Kd was > 4 mM (inactive). Regarding `N#CCSc1nc(-c2ccccc2)cs1`, the Kd is > 4 mM (inactive). For `Nn1c(CN2CCCCC2)nc2ccccc2c1=O`, the Kd is > 4 mM (inactive).

For the compound `COc1ccccc1Nc1nncc(=O)[nH]1`, the Kd is > 4 mM (inactive).

For the compound `CCn1cnc2cc([N+](=O)[O-])ccc2c1=O`, the Kd was > 4 mM (inactive).

`O=C(O)c1cccc2c1OCCO2`: the Kd was > 4 mM (inactive). Regarding `Cc1ccc(-c2nnn(CC(=O)O)n2)cc1`, the Kd was > 4 mM (inactive).

Take `O=C(c1sc2cccc(F)c2c1Cl)N1CCOCC1`: the Kd entry was “inactive”. Under `C[N+](C)(C)CC(=O)[O-]` stands > 4 mM (inactive); under `NC1CCN(Cc2ccccc2)CC1`, > 4 mM (inactive).

`Nc1ncnc(Nc2ccccc2C(F)(F)F)n1`: the Kd was > 4 mM (inactive).
